Tests used:
[1] = tested on: liver; assay: Organ preservation test: hepatic histopathological change after preservation at 4° C.; set-up: species or system SD rats; conditions: additives in UW solution, score 0 to 3.0 per sample
Method: The formulations of preserving solutions containing UW solution, and a combination of quercetin and sugar were evaluated using a hepatic histopathological change as an index.
Williams solution only, Williams solution containing only quercetin (10 μg/mL), Williams solution containing only fructose (0.2M), Williams solution containing only sucrose (0.1M), Williams solution containing quercetin (10 μg/mL) and fructose (0.2M), or Williams solution containing quercetin (10 μg/mL) and sucrose (0.1M) was used as an organ perfusion solution. Subsequently, as an organ preserving solution, UW solution only, UW solution containing only quercetin (10 μg/mL), UW solution containing only fructose (0.2M), UW solution containing only sucrose (0.1M), UW solution containing quercetin (10 μg/mL) and fructose (0.2M) or UW solution containing quercetin (10 μg/mL) and sucrose (0.1M) was used.
SD rats (male, body weight=264.1 g to 317.2 g) were injected with heparin from the portal vein under anesthesia. Thereafter, they were perfused with a physiological saline solution (8 cmH2O, about 100 mL) at room temperature, and then perfused with each organ perfusion solution (8 cmH2O, about 100 mL) at room temperature. Thereafter, the liver was excised, immersed in 20 mL of each organ preserving solution, and preserved at 4° C. 1 day after and 2 days after the preservation was started, all liver samples were immobilized using a 10% phosphate buffer formalin aqueous solution, and embedded in paraffin according to the standard method. Each sample was sliced into about 6 μm and a hematoxylin-eosin staining sample was prepared, followed by microscopic examination. The degrees of the observed histopathological change were converted to scores as shown below, and summed as cumulative values.
Score 0: no change was observed, Score 0.5: slight change was observed, Score 1.0: small change was observed, Score 2.0: intermediate change was observed, Score 3.0: great change was observed.

[2] = tested on: liver; assay: Organ preservation test: rat liver preserved at 4° C., ALT in organ immersion solution; set-up: species or system SD rats; conditions: additives in UW solution, liver at 4° C., mean of n=3 ± SD
Method: The protective action of a preserving solution for organs or tissue used in organ transplantation or tissue transplantation was assumed, and formulations of preservative solutions containing UW solution, and a combination of quercetin and sugar were evaluated using liver damage degree as an index. Williams solution (GIBCO, No. 12551-032) only, Williams solution containing quercetin (Sigma-Aldrich, 337951-25G) (10 μg/mL), Williams solution containing quercetin (10 μg/mL) and fructose (0.05M to 0.4M) (Kanto Chemical Co., Inc., Code No. 16065-00) (0.05M to 0.4M), or Williams solution containing quercetin (10 μg/mL) and sucrose (0.025M to 0.2M) (Nacalai Tesque, Inc., Code No. 30404-45) (0.025M to 0.2M) was used as an organ perfusion solution. Subsequently, UW solution (VSP1000, […] (cold storage solution) 1000 mL: Astellas Pharma Inc.) only, UW solution containing quercetin (10 μg/mL), UW solution containing quercetin (10 μg/mL) and fructose (0.05M to 0.4M), or UW solution containing quercetin (10 μg/mL) and sucrose (0.025M to 0.2M) was used as an organ preserving solution. SD rats (male, body weight=255.4 g to 339.0 g) were injected with heparin from the portal vein under anesthesia. Thereafter, they were perfused with a physiological saline solution (8 cmH2O, about 100 mL) at room temperature, and then perfused with each organ perfusion solution (8 cmH2O, about 100 mL) at room temperature. Thereafter, the liver was excised, immersed in 20 mL of each organ preserving solution, and preserved at 4° C. A part of each organ preserving solution was collected at 1 day after, 3 days after, 5 days after, and 7 days after the preservation was started, and ALT (alanine aminotransferase) (IU/L) was measured as an index of the degree of liver damage due to low-temperature preservation. The measured ALT are shown in Tables 1 and 2 (average value of n=3±standard deviation).

[3] = 1 day after preservation at 4° C. was started
[4] = 2 days after preservation at 4° C. was started

SMILES: OC[C@H]1O[C@@](CO)(O[C@H]2O[C@H](CO)[C@@H](O)[C@H](O)[C@H]2O)[C@@H](O)[C@@H]1O [0.1M Sucrose, sucrose]
- Histopathological Change: Diffuse Vacuolar Degeneration (Cumulative Score of n = 3) [1, 3]: 3.0
- Histopathological Change: Sporadic Single Cell Cloudy Swelling (Cumulative Score of n = 3) [1, 3]: 2.0
- Histopathological Change: Sporadic Single Cell Necrosis (Cumulative Score of n = 3) [1, 3]: 0.5
- Histopathological Change: Diffuse Vacuolar Degeneration (Cumulative Score of n = 3) [1, 4]: 3.0
- Histopathological Change: Sporadic Single Cell Cloudy Swelling (Cumulative Score of n = 3) [1, 4]: 2.5
- Histopathological Change: Sporadic Single Cell Necrosis (Cumulative Score of n = 3) [1, 4]: 1.0

SMILES: O=c1c(O)c(-c2ccc(O)c(O)c2)oc2cc(O)cc(O)c12 [Quercetin 10 μg/mL, quercetin]
- ALT Value in Organ Immersion Solution ([2]; Table 1, 1 day after): 65 ± 71 IU/L
- ALT Value in Organ Immersion Solution ([2]; Table 1, 3 days after): 90 ± 82 IU/L
- ALT Value in Organ Immersion Solution ([2]; Table 1, 5 days after): 98 ± 77 IU/L
- ALT Value in Organ Immersion Solution ([2]; Table 1, 7 days after): 117 ± 71 IU/L
- ALT Value in Organ Immersion Solution ([2]; Table 2, 1 day after): 62 ± 68 IU/L
- ALT Value in Organ Immersion Solution ([2]; Table 2, 3 days after): 108 ± 121 IU/L
- ALT Value in Organ Immersion Solution ([2]; Table 2, 5 days after): 126 ± 135 IU/L
- ALT Value in Organ Immersion Solution ([2]; Table 2, 7 days after): 148 ± 144 IU/L
- Histopathological Change: Diffuse Vacuolar Degeneration (Cumulative Score of n = 3) [1, 3]: 3.0
- Histopathological Change: Sporadic Single Cell Cloudy Swelling (Cumulative Score of n = 3) [1, 3]: 1.5
- Histopathological Change: Sporadic Single Cell Necrosis (Cumulative Score of n = 3) [1, 3]: 0.0
- Histopathological Change: Diffuse Vacuolar Degeneration (Cumulative Score of n = 3) [1, 4]: 3.0
- Histopathological Change: Sporadic Single Cell Cloudy Swelling (Cumulative Score of n = 3) [1, 4]: 2.0
- Histopathological Change: Sporadic Single Cell Necrosis (Cumulative Score of n = 3) [1, 4]: 0.5

SMILES: O=C(CO)[C@@H](O)[C@H](O)[C@H](O)CO [0.2M Fructose, fructose]
- Histopathological Change: Diffuse Vacuolar Degeneration (Cumulative Score of n = 3) [1, 3]: 2.0
- Histopathological Change: Sporadic Single Cell Cloudy Swelling (Cumulative Score of n = 3) [1, 3]: 2.5
- Histopathological Change: Sporadic Single Cell Necrosis (Cumulative Score of n = 3) [1, 3]: 1.0
- Histopathological Change: Diffuse Vacuolar Degeneration (Cumulative Score of n = 3) [1, 4]: 1.5
- Histopathological Change: Sporadic Single Cell Cloudy Swelling (Cumulative Score of n = 3) [1, 4]: 1.0
- Histopathological Change: Sporadic Single Cell Necrosis (Cumulative Score of n = 3) [1, 4]: 0.5
